{
  "source": "patent US8685976B2",
  "about": "“Cell adhesion promoting agent and method of promoting cell adhesion” (Kyoto University, priority 2008, dated 2014)",
  "key": {"HepG2 cells [1]": {"system": "HepG2 cells", "assay": "Cell growth assay (WST-8), HepG2", "assay_type": "cell-based", "protocol": "(§1) In (A) and (B), the cell growth was determined at 24, 48, and 72 hours after the addition of adhesamine (1) (6 μM). The cell growth in the presence of 1% (v/v) DMSO was assigned a value of 100%. The data shown are means±SD for a minimum of three experiments. (C) to (F) show the rearrangement of actin filaments in HepG2 and Jurkat cells in the presence of adhesamine (6 μM). Brightfield images (C and D) and confocal images (E and F) are shown. HepG2 (C and E) or Jurkat (D and F) cells were plated for 5 hours or 3 hours, respectively, and actin cytoskeletal was visualized using rhodamine-labeled phalloidin.\n(§2) 1 μL DMSO solution of adhesamine (1) was added to 96-well plate at a concentration of 600 μM. […] After incubation for indicated time, the cell viability was measured using Cell Counting Kit-8 (Dojindo Molecular Technologies, Inc., Gaithersburg, Md.), which contains a tetrazolium salt (WST-8) that produces a water-soluble formazan dye by NADH dehydrogenases in living cells. […] The optical density (OD) of the solution was read by a microplate reader, using a test wavelength at 450 nm and a reference wavelength at 650 nm. […] Each assay was conducted in triplicate, and the means and standard derivations were calculated for a minimum of three independent experiments."}, "[2]": {"system": "focal adhesion kinase (FAK)", "assay": "Western blotting, FAK activation", "assay_type": "cell-based, human", "details": "Jurkat", "protocol": "Jurkat cells were treated with adhesamine (6 μM) in a serum-poor culture medium (0.1% FBS) for the indicated periods of time. The treated cell lysates were Western blotted with antibodies against FAK phospho-tyrosine^397 (pFAK), FAK, ERK1/2 phospho-threonine^202/tyrosine^204 (pERK) or ERK. In (B), Jurkat cells were incubated for 5 hours with varied concentrations of adhesamine or poly-L-lysine. The cell lysates were Western blotted with antibodies against FAK phospho-tyrosine^397 or FAK. […] The concentration of adhesamine (1) was 6 μM.\nJurkat cells were maintained in an RPMI medium containing 10% FBS. 5-6 million Jurkat cells were dispensed to a well of a 6-well plate in a final volume of 2 mL, and then incubated at 37° C. for 0-5 hours in the presence of adhesamine or poly-L-lysine. Non-adherent cells were removed and pelleted, and the remaining adherent cells were lysed in a 125 mM Tris-HCl buffer (pH 6.8) containing 4% SDS, 10% glycerol, 0.006% bromophenol blue, and 1.8% β-mercaptoethanol. The adherent cell homogenate was combined with pelleted nonadherent cells from the same well, and the combined sample was boiled for 5 minutes. The samples were separated by SDS-PAGE and electroblotted onto a nitrocellulose membrane. The membranes were blocked in 1% BSA and incubated with primary antibody, and then with horseradish peroxidase-conjugated secondary antibody. The blots were developed using the enhanced chemiluminescence technique."}, "Jurkat cells [3]": {"system": "Jurkat cells", "assay": "Cell growth assay (WST-8), Jurkat", "assay_type": "cell-based, human", "protocol": "as §1, §2"}, "HepG2 cells [4]": {"system": "HepG2 cells", "assay": "Focal adhesion formation, anti-vinculin staining", "assay_type": "cell-based", "details": "HepG2, immediately after seeding", "protocol": "Trypsin-treated HepG2 cells were plated for 3 hours onto coverslips to which adhesamine was added; fixed thereon; and stained with anti-vinculin antibody and Alexa Fluor 488 goat anti-mouse IgG.\nThe cells were also stained with an antibody against vinculin, a marker of focal adhesion. […] These observations indicate that the adhesamine-induced contacts of the cells to the plates initiate a normal schedule of cell adhesion^(2,3)."}, "Jurkat cells [5]": {"system": "Jurkat cells", "assay": "Visualization of actin cytoskeleton with rhodamine-conjugated phalloidin, Jurkat", "assay_type": "cell-based, human", "details": "6 μM", "protocol": "as §1\nJurkat or HepG2 cells were plated onto glass coverslips in the presence of adhesamine (6 μM). They were fixed after 5 or 3 hours, respectively, with 4% paraformaldehyde for 20 minutes. The cell membrane was permeabilized by 5-min treatment with 0.1% Triton X-100 (in PBS). Samples were washed twice with PBS, and actin cytoskeleton was visualized with rhodamine-conjugated phalloidin according to the manufacturer's instructions (Invitrogen). The cell images were captured with a Yokogawa CSU22 confocal fluorescence microscope with 588-nm laser excitation."}, "Jurkat cells [6]": {"system": "Jurkat cells", "assay": "Cell detachment assay", "assay_type": "cell-based, human", "details": "24 hour after washing (removal of adhesamine)", "protocol": "FIG. 2 is a graph illustrating a reversible activity of adhesamine (1). The attached cells were counted at the indicated time points after removal of adhesamine (1). In order to calculate adhesion rates, the number of cells before washing was assigned a value of 100%. Each assay was conducted in triplicate, and the means and the standard deviations were calculated for a minimum of three independent experiments.\n1 μL DMSO solution of adhesamine (1) (6 mM) was dispensed to each well on a 96-well plate. Jurkat cells were suspended in the growth medium, and 100 μL of cell suspension was added to each well at a density of 1×10^6 cells/mL. After 5-hour incubation at 37° C., the medium was aspirated, and the plates were washed twice with PBS. 100 μL of fresh medium was added to each well. After further 4, 8, 14 and 24-hour incubation at 37° C., non-adhered cells were removed by washing with PBS twice, and the attached cells were counted with a Neubauer counting chamber. To calculate adhesion rates, the cell numbers before washing were assigned a value of 100%. Each assay was conducted in triplicate, and the means and standard derivations were calculated for a minimum of three independent experiments."}},
  "data": [
    {"smiles": "CSc1nc(Cl)c(C=O)c(N2CC[N+]3(CC2)CC[N+]2(CCN(c4nc(SC)nc(Cl)c4C=O)CC2)CC3)n1", "note": "[adhesamine]", "values": [
      {"measurement": "cytotoxicity", "setting": "HepG2 cells [1]; HepG2, 6 μM", "result": "no obvious cytotoxicity"},
      {"measurement": "growth of the cells", "setting": "HepG2 cells [1]; HepG2, 6 μM, 24, 48, 72 hours, vs 1% DMSO", "result": "slightly enhanced"},
      {"measurement": "time after stimulation at which FAK phosphorylation was demonstrated", "setting": "[2]; 6 μM, serum-poor medium", "result": 5, "unit": "h"},
      {"measurement": "concentration sufficient to phosphorylate FAK", "setting": "[2]; 5 hours", "result": 5, "unit": "µg/mL"},
      {"measurement": "cytotoxicity", "setting": "Jurkat cells [3]; 6 μM", "result": "no obvious cytotoxicity"},
      {"measurement": "growth of the cells", "setting": "Jurkat cells [3]; 6 μM, 24, 48, 72 hours, vs 1% DMSO", "result": "slightly enhanced"},
      {"measurement": "vinculin-containing focal adhesions", "setting": "HepG2 cells [4]", "result": "Vinculin-containing focal adhesions were observed"},
      {"measurement": "actin cytoskeleton structure in adhered cells", "setting": "Jurkat cells [5]", "result": "well-organized cortical actin structure"},
      {"measurement": "Jurkat cells released from the surface of a culture plate", "setting": "Jurkat cells [6]", "result": 93, "unit": "%"}
    ]}
  ]
}
